In patent US20260327264A1, “PEPTIDE INHIBITORS OF INTERLEUKIN-23 RECEPTOR” (Zealand Pharma A/S, priority 2023, published 2026):
Entries after “also recorded” stand apart in the source; their conditions may differ. Where two headings read alike, the source gives them in different places. *1 amine or outer side, *2 acyl side, *3 side chain or, on linkers, in order; H or OH if unused. Where a SMILES comes first, the peptide text is derived from it. Bridges are numbered along the chain shown (N, C = ends). [ ]: non-standard residue; d: D form. 2Nal = N[C@@H](Cc1ccc2ccccc2c1)C(=O)O; AEF = NCCOc1ccc(C[C@H](N)C(=O)O)cc1; X1 = O=C(Cc1ccc(CN[*:1])cc1)[*:2]; 3Pal = N[C@@H](Cc1cccnc1)C(=O)O; αMeL = CC(C)C[C@](C)(N)C(=O)O; Dab = NCC[C@H](N)C(=O)O

Legend:
[1] = Peptide stability in simulated gastric fluid (SGF); type: in vitro ADME; settings: pig, pH 1.2, pepsin, 37° C.
Method: (§1) SGF and SIF were prepared based on the United States Pharmacopeia specifications (Test Solutions, United States Pharmacopeia 35, NF 30, 2012). SGF was prepared by dissolving sodium chloride (0.2 g) in 50 mL of water. A volume of 0.7 mL of 10 M HCl was added to adjust the pH of the solution to 1.2 and the volume made up to 100 mL with water. 64 mg porcine pepsin (P7125, Sigma Aldrich) was gently dissolved into 20 mL preheated (37° C.) solution (3.2 g/L) immediately prior to the incubation. SIF was prepared by dissolving monobasic potassium phosphate (0.68 g) in 50 mL of water and adjusting the pH to 6.8 with 1 M NaOH. The volume was subsequently made up to 100 mL with water. 200 mg porcine pancreatin (P1625, Sigma Aldrich) was gently dissolved into 20 mL preheated (37° C.) solution (10 g/L) immediately prior to the incubation.
(§2) To initiate the incubations, 20 μL of peptide stock solution in 50% v/v isopropanol was deposited at the bottom of a well plate and 580 μL matrix solution was added to give a final substrate concentration of 10 μM. The incubation was performed at 37° C. with gentle shaking. 70 μL aliquots were removed at 0, 1 and 4 hours and quenched into 210 μL ice-cold precipitant solution (95% v/v acetonitrile with 0.1% v/v formic acid). After the last timepoint, the sampling plate was mixed for 10 min on a shaking table and centrifuged 10 min at 2200 g. 70 μL resulting supernatant was diluted with 150 μL water, mixed and centrifugated before analysis by liquid chromatography high resolution mass spectrometry. The zero sample was reinjected after the 4-hour sample to confirm that no drift in instrument sensitivity had occurred during the run. Percent remaining at each timepoint was calculated relative to timepoint zero based on absolute peak areas.
(§3) Compounds with a SGF stability (after 4 h) above 70% are considered highly SGF stable. Compounds with a SGF stability (after 4 h) between 30-70% (including 30% and 70%) are considered moderately SGF stable. Compounds with a SGF stability (after 4 h) below 30% are considered SGF unstable. SGF stability values above 100% are due to assay uncertainty and indicate the compound has not degraded.

[2] = Peptide stability in simulated intestinal fluid (SIF); type: in vitro ADME; settings: for remaining at 1 h, 10 µM / remaining at 4 h, 10 µM: pig
Method: as §1, §2
as §3, with “SIF” for “SGF”

[3] = test system: IL-23 mediated STAT3 signalling (DB cells); experiment: Functional inhibition of IL-23 mediated STAT3 signalling (phospho-STAT3 Tyr705) in DB cells; type: cell-based, human; settings: for hIL-23 (pSTAT3) antagonist % inhibition: Table 3-2, maximal inhibitory response, EC80 of hIL-23
In short: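 DB cells preincubated 15 min with inhibitor at 37° C, 5% CO2, then stimulated 90 min with hIL-23 at EC80. Lysate phospho-STAT3 measured by MSD electrochemiluminescence. Signal normalized to IL-23-alone and buffer wells; IC50 and maximal inhibition from concentration–response curves.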

[4] = target: T1, human IL-23R (Homo sapiens, UniProt Q5VWK5); experiment: Binding assay: displacement of fluorophore (TAMRA)-labelled reference compound from human IL-23R (BRET, Nluc-IL23R fusion protein membranes); settings: for potency of the compound (in words): potency against IL-23R; for Emax: read-out: % displacement (hIL-23R binding)
T1 construct: Nanoluc luciferase (Nluc); secretion signal encoded by the plasmid (not specified); expressed in transfected cells; crude membranes used in the assay
T1 sequence (Q5VWK5 22-629): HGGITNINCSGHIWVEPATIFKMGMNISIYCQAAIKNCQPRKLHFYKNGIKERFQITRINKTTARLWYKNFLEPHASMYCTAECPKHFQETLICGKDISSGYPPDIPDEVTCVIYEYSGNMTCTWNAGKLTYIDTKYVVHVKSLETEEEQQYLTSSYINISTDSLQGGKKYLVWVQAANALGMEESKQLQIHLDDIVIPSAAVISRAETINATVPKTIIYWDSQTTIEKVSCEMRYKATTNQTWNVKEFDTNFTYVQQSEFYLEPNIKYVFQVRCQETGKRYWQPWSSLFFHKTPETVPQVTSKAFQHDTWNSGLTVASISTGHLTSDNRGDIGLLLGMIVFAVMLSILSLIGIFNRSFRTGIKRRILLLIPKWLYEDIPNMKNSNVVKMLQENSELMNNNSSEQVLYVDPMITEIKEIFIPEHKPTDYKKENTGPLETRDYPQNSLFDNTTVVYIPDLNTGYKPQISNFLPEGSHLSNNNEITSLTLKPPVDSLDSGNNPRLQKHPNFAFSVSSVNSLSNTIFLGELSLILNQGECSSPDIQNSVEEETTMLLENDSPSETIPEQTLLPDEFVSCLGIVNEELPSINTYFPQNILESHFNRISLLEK

[5] = simulated intestinal fluid, SIF, pH 6.8, pancreatin, 37° C.
[6] = simulated intestinal fluid, SIF, pH 6.8, pancreatin, 37° C., read-out: SIF (% remaining 4 h)
[7] = Table 3-2, EC80 of hIL-23, read-out: hIL-23 (pSTAT3) antagonist IC50

Row | Compound | remaining at 1 h, 10 µM [1] | remaining at 4 h, 10 µM [1] | remaining at 1 h, 10 µM [2, 5] | remaining at 4 h, 10 µM [2, 6] | remaining at 4 h, 10 µM ([2]; 37 °C, simulated intestinal fluid pH 6.8 with porcine pancreatin, read-out: SIF (% after 4 h), intact peptide remaining) | SIF stability (in words) ([2]; simulated intestinal fluid) | IC50 ([3]; EC80 of hIL-23, read-out: IC50 (pSTAT3)) | IC50 [3, 7] | hIL-23 (pSTAT3) antagonist % inhibition [3] | potency of the compound (in words) [4] | IC50 [4] | Emax [4] | major metabolite formed after incubation in the SIF assay ([2]; simulated intestinal fluid)
1 | CC(C)C[C@@H]1NC(=O)[C@H](Cc2c[nH]c3ccccc23)NC(=O)[C@H](Cc2c[nH]c3ccccc23)NC(=O)[C@@H]2CSCC(=O)CSC[C@H](NC(=O)[C@H](CO)NC(=O)[C@@H](NC(=O)[C@@H](N)CC(=O)O)CSCC(=O)CSC[C@@H](C(=O)N[C@@H](CCCNC(=N)N)C(N)=O)NC1=O)C(=O)N[C@@H](Cc1c[nH]c3ccccc13)C(=O)N[C@@H](CCC(N)=O)C(=O)N2 (single isomer, unassigned) [I3 (isomer 3), H-DC(1a)SC(2a)WQC(2a)WWLC(1a)R-[NH2], reference compound] | 5% | 0% | 0% | 0% | – | – | – | – | – | – | – | – | –
2 | CC(C)C[C@]1(C)NC(=O)[C@H](Cc2ccc3ccccc3c2)NC(=O)[C@H](Cc2ccc(OCCN)cc2)NC(=O)[C@@H]2CCNC(=O)CC[C@H](NC(=O)[C@H](CO)NC(=O)Cc3ccc(cc3)CNC(=O)CC[C@@H](C(=O)N[C@@H](CCN)C(=O)NCCc3cccnc3)NC1=O)C(=O)N[C@@H](Cc1c[nH]c3ccccc13)C(=O)N[C@@H](CCC(N)=O)C(=O)N2 [Compound 7, [4-Aminomethyl-phenylacetyl](1c)*SE(2c)WQ[Dab](2c)[Y(2-aminoethoxy)][2-Nal][2-Me-Leu]E(1c)[Dab]-[NH-(2-(pyridin-3-yl)ethyl)]] | – | – | 103% | – | 130% | SIF stable | 0.13 nM | 0.13 nM | 98% | more potent than Compound 6; also recorded: particularly potent | – | – | –
3 | CNC(=O)[C@H](Cc1cccnc1)NC(=O)[C@H](CCN)NC(=O)[C@@H]1CCC(=O)NCc2ccc(cc2)CC(=O)N[C@@H](C)C(=O)N[C@H]2CCC(=O)NCC[C@H](NC(=O)[C@H](CCC(N)=O)NC(=O)[C@H](Cc3c[nH]c4ccccc34)NC2=O)C(=O)N[C@@H](Cc2ccc(OCCN)cc2)C(=O)N[C@@H](Cc2cnc3ccccc3c2)C(=O)NC(C)(C)C(=O)N1 [Compound 49, 4-aminomethyl-phenylacetyl](1c)*AE(2c)WQ[Dab](2c)[Y(2-aminoethoxy)][3-quinolinylalanine][Aib]E(1c)[Dab][3-(3-Pyridyl)-alanyl]-[NHMe]] | – | – | 93% | 89% | – | – | – | 0.093 nM | 100% | – | 0.023 nM | 89% | –
4 | CC(C)C[C@]1(C)NC(=O)[C@H](Cc2ccc3ccccc3c2)NC(=O)[C@H](Cc2ccc(OCCN)cc2)NC(=O)[C@@H]2CCNC(=O)CC[C@H](NC(=O)[C@H](CO)NC(=O)Cc3ccc(cc3)CNC(=O)CC[C@@H](C(=O)N[C@@H](CCN)C(=O)N[C@@H](Cc3cccnc3)C(N)=O)NC1=O)C(=O)N[C@@H](Cc1c[nH]c3ccccc13)C(=O)N[C@@H](CCC(N)=O)C(=O)N2 [Ref 122, [4-Aminomethyl-phenylacetyl](1c)*SE(2c)WQ[Dab](2c)[Y(2-aminoethoxy)][2-Nal][2-Me-Leu]E(1c)[Dab][3-(3-Pyridyl)-Ala]-[NH2], reference compound] | – | – | – | – | – | not stable | – | – | 99% | potent | – | 97% | the peptide without the C-terminal 3Pal (3-(3-Pyridyl)-Ala) amino acid
5 | CNC(=O)[C@H](Cc1cccnc1)NC(=O)[C@H](CCN)NC(=O)[C@@H]1CCC(=O)NCc2ccc(cc2)CC(=O)N[C@@H](C)C(=O)N[C@H]2CCC(=O)NCC[C@H](NC(=O)[C@H](CCC(N)=O)NC(=O)[C@H](Cc3c[nH]c4ccccc34)NC2=O)C(=O)N[C@@H](Cc2ccc(OCCN)cc2)C(=O)N[C@@H](Cc2c[nH]c3ncccc23)C(=O)NC(C)(C)C(=O)N1 [Compound 44, [4-Aminomethyl-phenylacetyl](1c)*AE(2c)WQ[Dab](2c)[Y(2-aminoethoxy)][7-AzaTrp][Aib]E(1c)[Dab][3-(3-Pyridyl)-Ala]-[NHMe]] | – | – | 78% | 91% | – | – | – | – | – | – | – | – | –
6 | CNC(=O)[C@H](Cc1cccnc1)NC(=O)[C@H](Cc1c[nH]cn1)NC(=O)[C@@H]1CCC(=O)NCc2ccc(cc2)CC(=O)N[C@@H](CO)C(=O)N[C@H]2CCC(=O)NCC[C@H](NC(=O)[C@H](CCC(N)=O)NC(=O)[C@H](Cc3c[nH]c4ccccc34)NC2=O)C(=O)N[C@@H](Cc2ccc(OCCN)cc2)C(=O)N[C@@H](Cc2ccc3ccccc3c2)C(=O)N[C@@](C)(CC(C)C)C(=O)N1 [Compound 34, [4-Aminomethyl-phenylacetyl](1c)*SE(2c)WQ[Dab](2c)[Y(2-aminoethoxy)][2-Nal][2-Me-Leu]E(1c)H[3-(3-Pyridyl)-Ala]-[NHMe]] ([X1]SEWQ[Dab][AEF][2Nal][αMeL]EH[3Pal]-NHMe; lactam 3-6, N-10) | – | 95% | – | – | – | – | – | – | 102% | – | – | 90% | –
7 | CNC(=O)[C@H](Cc1cccnc1)NC(=O)[C@H](CCN)NC(=O)[C@@H]1CCC(=O)NCc2ccc(cc2)CC(=O)N[C@@H](C)C(=O)N[C@H]2CCC(=O)NCC[C@H](NC(=O)[C@H](CCC(N)=O)NC(=O)[C@H](Cc3c[nH]c4ccccc34)NC2=O)C(=O)N[C@@H](Cc2cnc3ccccc3c2)C(=O)N[C@@H](Cc2ccc3ccccc3c2)C(=O)NC(C)(C)C(=O)N1 [Compound 52, [4-aminomethyl-phenylacetyl](1c)*AE(2c)WQ[Dab](2c)[3-quinolinylalanine][2Nal][Aib]E(1c)[Dab][3-(3-Pyridyl)-alanyl]-[NHMe]] | – | – | 92% | 95% | – | – | – | 0.6 nM | 99% | – | 0.081 nM | 102% | –
8 | CC(C)C[C@]1(C)NC(=O)[C@H](Cc2ccc3ccccc3c2)NC(=O)[C@H](Cc2ccc(OCCN)cc2)NC(=O)[C@@H]2CCNC(=O)CC[C@H](NC(=O)[C@H](CO)NC(=O)Cc3ccc(cc3)CNC(=O)CC[C@@H](C(=O)N[C@@H](CCN)C(=O)N[C@@H](Cc3c[nH]cn3)C(=O)N[C@@H](Cc3cccnc3)C(N)=O)NC1=O)C(=O)N[C@@H](Cc1c[nH]c3ccccc13)C(=O)N[C@@H](CCC(N)=O)C(=O)N2 [Compound 12, [4-Aminomethyl-phenylacetyl](1c)*SE(2c)WQ[Dab](2c)[Y(2-aminoethoxy)][2-Nal][2-Me-Leu]E(1c)[Dab]H[3-(3-Pyridyl)-Ala]-[NH2]] ([X1]SEWQ[Dab][AEF][2Nal][αMeL]E[Dab]H[3Pal]-NH2; lactam 3-6, N-10) | 94% | – | – | – | – | – | – | 3.5 nM | 100% | – | – | 104% | –
